From ChEMBL document CHEMBL4007501, “Synthesis and antitumor evaluation of 2,3-diarylbenzofuran derivatives on HeLa cells” (Bioorg Med Chem Lett, 2017)
Calls of active or inactive are those of the source. No cut-off for these calls is given here.

How the values were obtained:
[1] = system: HeLa; test: Cytotoxicity against human HeLa cells assessed as decrease in cell viability after 48 hrs by MTT assay; assay type: functional, cell-based
[2] = system: P388; test: Cytotoxicity against mouse P388 cells assessed as growth inhibition; assay type: functional, cell-based
[3] = system: MCF7; test: Cytotoxicity against human MCF7 cells assessed as decrease in cell viability by MTT assay; assay type: functional, cell-based
[4] = system: HepG2; test: Cytotoxicity against human HepG2 cells assessed as decrease in cell viability by MTT assay; assay type: functional, cell-based
[5] = system: HeLa; test: Cell cycle arrest in human HeLa cells assessed as accumulation at G1 phase at 20 uM after 48 hrs by propidium iodide staining-based flow cytometric analysis (reference value: 66.35%); assay type: functional
[6] = system: HeLa; test: Induction of apoptosis in human HeLa cells assessed as early apoptotic cells at 20 uM after 24 hrs by annexin V/FITC-propidium iodide staining-based flow cytometric method (reference value: 1.76%); assay type: functional
[7] = system: HeLa; test: Induction of apoptosis in human HeLa cells assessed as viable cells at 20 uM after 24 hrs by annexin V/FITC-propidium iodide staining-based flow cytometric method (reference value: 95.4%); assay type: functional; settings: read-out: Activity
[8] = system: HeLa; test: Downregulation of Bcl-2 expression in human HeLa cells at 10 to 30 uM after 24 hrs by Western blot method; assay type: functional, cell-based
[9] = system: HeLa; test: Cell cycle arrest in human HeLa cells assessed as accumulation at G2 phase at 30 uM after 48 hrs by propidium iodide staining-based flow cytometric analysis (reference value: 4.45%); assay type: functional
[10] = system: HeLa; test: Cell cycle arrest in human HeLa cells assessed as accumulation at S phase at 10 uM after 48 hrs by propidium iodide staining-based flow cytometric analysis (reference value: 29.20%); assay type: functional
[11] = system: HeLa; test: Induction of apoptosis in human HeLa cells assessed as early apoptotic cells at 30 uM after 24 hrs by annexin V/FITC-propidium iodide staining-based flow cytometric method (reference value: 1.76%); assay type: functional
[12] = system: HeLa; test: Induction of apoptosis in human HeLa cells assessed as necrotic cells at 30 uM after 24 hrs by annexin V/FITC-propidium iodide staining-based flow cytometric method (reference value: 1.81%); assay type: functional
[13] = system: HeLa; test: Cell cycle arrest in human HeLa cells assessed as accumulation at S phase at 30 uM after 48 hrs by propidium iodide staining-based flow cytometric analysis (reference value: 29.20%); assay type: functional
[14] = system: HeLa; test: Induction of apoptosis in human HeLa cells assessed as late apoptotic cells at 30 uM after 24 hrs by annexin V/FITC-propidium iodide staining-based flow cytometric method (reference value: 0.987%); assay type: functional
[15] = system: HeLa; test: Cell cycle arrest in human HeLa cells assessed as accumulation at G2 phase at 10 uM after 48 hrs by propidium iodide staining-based flow cytometric analysis (reference value: 4.45%); assay type: functional
[16] = system: HeLa; test: Upregulation of Bak expression in human HeLa cells at 10 to 30 uM after 24 hrs by Western blot method; assay type: functional, cell-based
[17] = system: HeLa; test: Cytotoxicity against human HeLa cells assessed as decrease in cell viability at 20 uM after 48 hrs by MTT assay relative to control; assay type: functional
[18] = system: HeLa; test: Cell cycle arrest in human HeLa cells assessed as accumulation at G1 phase at 10 uM after 48 hrs by propidium iodide staining-based flow cytometric analysis (reference value: 66.35%); assay type: functional
[19] = system: HeLa; test: Cytotoxicity against human HeLa cells assessed as decrease in cell viability at 10 uM after 48 hrs by MTT assay relative to control; assay type: functional
[20] = system: HeLa; test: Cell cycle arrest in human HeLa cells assessed as accumulation at G1 phase at 30 uM after 48 hrs by propidium iodide staining-based flow cytometric analysis (reference value: 66.35%); assay type: functional
[21] = system: HeLa; test: Induction of apoptosis in human HeLa cells assessed as necrotic cells at 10 uM after 24 hrs by annexin V/FITC-propidium iodide staining-based flow cytometric method (reference value: 1.81%); assay type: functional
[22] = system: HeLa; test: Upregulation of Bim expression in human HeLa cells at 10 to 30 uM after 24 hrs by Western blot method; assay type: functional, cell-based
[23] = system: HeLa; test: Cell cycle arrest in human HeLa cells assessed as accumulation at S phase at 20 uM after 48 hrs by propidium iodide staining-based flow cytometric analysis (reference value: 29.20%); assay type: functional
[24] = system: HeLa; test: Cell cycle arrest in human HeLa cells assessed as accumulation at G2 phase at 20 uM after 48 hrs by propidium iodide staining-based flow cytometric analysis (reference value: 4.45%); assay type: functional
[25] = system: HeLa; test: Induction of apoptosis in human HeLa cells assessed as late apoptotic cells at 20 uM after 24 hrs by annexin V/FITC-propidium iodide staining-based flow cytometric method (reference value: 0.987%); assay type: functional
[26] = system: HeLa; test: Induction of apoptosis in human HeLa cells assessed as viable cells at 10 uM after 24 hrs by annexin V/FITC-propidium iodide staining-based flow cytometric method (reference value: 95.4%); assay type: functional; settings: read-out: Activity
[27] = system: HeLa; test: Induction of apoptosis in human HeLa cells assessed as late apoptotic cells at 10 uM after 24 hrs by annexin V/FITC-propidium iodide staining-based flow cytometric method (reference value: 0.987%); assay type: functional
[28] = system: HeLa; test: Induction of apoptosis in human HeLa cells assessed as viable cells at 30 uM after 24 hrs by annexin V/FITC-propidium iodide staining-based flow cytometric method (reference value: 95.4%); assay type: functional; settings: read-out: Activity
[29] = system: HeLa; test: Downregulation of Bcl-xL expression in human HeLa cells at 10 to 30 uM after 24 hrs by Western blot method; assay type: functional, cell-based
[30] = system: HeLa; test: Induction of apoptosis in human HeLa cells assessed as early apoptotic cells at 10 uM after 24 hrs by annexin V/FITC-propidium iodide staining-based flow cytometric method (reference value: 1.76%); assay type: functional
[31] = system: HeLa; test: Induction of apoptosis in human HeLa cells assessed as necrotic cells at 20 uM after 24 hrs by annexin V/FITC-propidium iodide staining-based flow cytometric method (reference value: 1.81%); assay type: functional

`Oc1ccc(-c2c(-c3ccc(Br)cc3)oc3cc(O)ccc23)c(O)c1` was tested, and the IC50 [1] was 36.7 µM.

`Cc1ccccc1-c1oc2cc(O)ccc2c1-c1ccc(O)cc1O` showed an IC50 [1] of 47.5 µM.

Work on `Cc1ccc(-c2oc3cc(O)ccc3c2-c2ccc(O)cc2O)cc1` yielded an IC50 [1] of 29.2 µM.

In the case of `O=C1c2c(O)cc(O)cc2-c2c(-c3ccc(O)cc3)oc3cc(O)cc1c23`, the IC50 [2] is reported as 13.2 µM.

For `COc1cccc(-c2c(-c3ccccc3)oc3c(OC)cccc23)c1O`, the IC50 [1] was 57.8 µM.

Molecule `Oc1ccc(-c2c(-c3ccc(Cl)cc3)oc3cc(O)ccc23)c(O)c1` has an IC50 [1] of 32.7 µM.

Molecule `CC[C@@]1(O)C(=O)OCc2c1cc1n(c2=O)Cc2cc3cc(O)ccc3nc2-1` [HYDROXYCAMPTOTHECIN] has an IC50 [1] of 10 µM.

`COc1ccc(/C=C/c2cc(OC)c3c(-c4cc(OC)cc(OC)c4)c(-c4ccc(OC)cc4)oc3c2)cc1` showed an IC50 [3] of 0.85 µM and an IC50 [4] of 0.24 µM.

In the case of `Oc1ccc(-c2c(-c3cccnc3)oc3cc(O)ccc23)c(O)c1`, the IC50 [1] is reported as 19.9 µM.

For `Oc1ccc(-c2c(-c3ccccc3Br)oc3cc(O)ccc23)c(O)c1`, the IC50 [1] was greater than 100 µM.

`Oc1ccc(-c2c(-c3ccc(F)cc3)oc3cc(O)ccc23)c(O)c1` was tested, and the IC50 [1] was 28.3 µM.

Work on `Oc1ccc(-c2c(-c3ccccc3)oc3cc(O)ccc23)c(O)c1` yielded an IC50 [1] of 29.7 µM.

In the case of `COc1ccc(-c2oc3cc(O)ccc3c2-c2ccc(O)cc2O)cc1`, the IC50 [1] is reported as 13.7 µM.

With `COc1ccc(-c2c(-c3ccccc3)oc3cc(OC)ccc23)c(O)c1` the IC50 [1] was 28.9 µM.

Molecule `Oc1ccc(-c2c(-c3cccc(Br)c3)oc3cc(O)ccc23)c(O)c1` has an IC50 [1] of 26.9 µM.

For `Oc1ccc(-c2oc3cc(O)ccc3c2-c2ccc(O)cc2O)cc1`, the IC50 [1] was 32 µM.

Molecule `Oc1ccc(-c2c(-c3ccc4ccccc4c3)oc3cc(O)ccc23)c(O)c1` has an IC50 [1] of 21.2 µM.

`Cc1cccc(-c2oc3cc(O)ccc3c2-c2ccc(O)cc2O)c1` gave an Activity [5] of 63.54%, an Activity [6] of 8.57% and an IC50 [1] of 13.4 µM. For the same molecule, the viability at 20 µM [7] was 69.5%, the Activity [8] was “Active” and the Activity [9] was 7.1%. It also gave an Activity [10] of 21.56%, an Activity [11] of 10.3% and an Activity [12] of 11.5%. The Activity [13] was 31.82%, the Activity [14] was 36.2% and the Activity [15] was 7.56%. For the same molecule, the Activity [16] was “Active”, the Activity [17] was 65% and the Activity [18] was 70.88%. For the same molecule, the Activity [19] was 30%, the Activity [20] was 61.08% and the Activity [21] was 1.97%. For the same molecule, the Activity [22] was “Active”, the Activity [23] was 30.15% and the Activity [24] was 6.31%. It also gave an Activity [25] of 18.9%, a viability at 10 µM [26] of 82.7% and an Activity [27] of 7.26%. The viability at 30 µM [28] was 42.1%, the Activity [29] was “Active” and the Activity [30] was 8.05%. It also gave an Activity [31] of 3.08%.

In the case of `COc1cccc(-c2oc3cc(O)ccc3c2-c2ccc(O)cc2O)c1`, the IC50 [1] is reported as 29.9 µM.
